Measurements: US8481028B2, “Compositions for preparing a coffee beverage comprising hydrolysed chlorogenic acid” (Nestec S.A., priority 2008, dated 2013)

Tests used:
[1] = system: Lactobacillus johnsonii (CNCM I-1225); experiment: Gastric small-intestinal model (TIM), hydrolysis of 5-CQA during simulated digestion; details: 6 h digestion, with addition of L. johnsonii
Method: The gastric small-intestinal model, TIM-1, comprises four connected compartments that represent the stomach, duodenum, jejunum and ileum, respectively. Each compartment consists of a glass outer wall with a flexible inner wall. The flexible wall is surrounded by water at 37° C. to squeeze the walls, which ensures mixing of the food with the secreted enzymes by peristaltic movements in the gastro-intestinal tract.
The experiments in the model were performed under average physiological conditions of the gastro-intestinal tract. During the experiments, the temperature was kept at 37° C. and salivary, gastric, biliary, and pancreatic secretions were simulated. The digestion process in the model was monitored for 6 h. During the first 3.5 h, the gastric content was gradually delivered into the small intestine “pyloric valve”. […]
4.5 g of NESCAFE PROTECT® (a co-extract of green and roasted coffee beans) were dissolved in 310 ml acetate buffer (20 mM, pH 6.5). […] After 6 h experiment, the residues from the compartments of the stomach, duodenum, jejunum and ileum were analysed to calculate the mass balance of chlorogenic acids. […] After 6 h, the residues from the compartments of the stomach, duodenum, jejunum and ileum were analysed by HPLC to calculate the mass balance of 5-caffeoyl quinic acid.

[2] = system: Lactobacillus johnsonii (CNCM I-1225) fresh cells; experiment: Treatment of NESCAFE PROTECT with L. johnsonii fresh cells, HPLC of chlorogenic and phenolic acids
Method: (§1) Cells of L. johnsonii (CNCM I-1225) were grown (7.0 E08 cfu/ml) and centrifuged (5000 g, 10 min), the pellets were resuspended in phosphate buffer (50 mM, pH 7.0) at a concentration of 0.61 g/ml. […] Samples were withdrawn at different reaction times, centrifuged (3000 g, 5 min) and filtered through 0.45 μm pore size syringe filters (Millipore SLHA 025 BS) and analysed by HPLC.
A reaction control was run in parallel under the same reaction conditions but without bacteria.
(§2) Coffee samples were diluted to 1% w/w and analyzed by RP-HPLC on a CC 250/4 Nucleosil 100-5-C18 column (Macherey-Nagel). The eluent system was Millipore water, 0.1% TFA and CH3CN at a flow rate of 1 mL/min. The method allowed the simultaneous determination of caffeoyl quinic acids (CQA), feruloyl quinic acids (FQA), di-caffeoyl quinic acids (diCQA), feruloyl quinic acid-lactones, caffeic acid (CA) and ferulic acid (FA) (absorbance at 325 nm) using external standard calibration curves. Results were expressed relative to the reference at time 0 (t0) or to the reference at the same time without bacteria.

[3] = system: Lactobacillus johnsonii (CNCM I-1225) extract (lysed cells); experiment: Treatment of NESCAFE PROTECT with L. johnsonii extract (lysed cells), HPLC; type: biochemical
Method: as §1, with “g/ml. The cells were then lysed using the glass-beads method. 600 μl of cells preparation were put in screw-cap tubes and 600 μl of glass-beads were added at 0° C. The tubes were then put into a Mini-Beadbeater for 1 min of intense shaking, cooled in ice, and put another 1 min in the Mini-Beadbeater.” for “g/ml.”, “min),” for “min) and”
as §2

[4] = system: spray-dried preparation of Lactobacillus johnsonii (CNCM I-1225); experiment: Treatment of NESCAFE PROTECT with spray-dried preparation of L. johnsonii, HPLC
Method: (§3) To this solution, 10 mg of a spray-dried preparation of Lactobacillus johnsonii (CNCM I-1225) (3.3 E9 cfu/g) were added. The mixture was then incubated at 37° C. and samples were withdrawn at different reaction times. After centrifugation (3000 g, 5 min) and filtration (0.45 μm pore size syringe filters, Millipore SLHA 025 BS) the samples were analysed by HPLC.
as §2

[5] = system: spray-dried preparation of Lactobacillus johnsonii (CNCM I-1225); experiment: Treatment of green coffee extract with spray-dried preparation of L. johnsonii, HPLC
Method: as §3, with “30 mg of a dried green coffee extract was dissolved in 1 ml phosphate buffer (50 mM, pH 7.0) or in 1 ml water. To” for “To”, “johnsonii” for “johnsonii (CNCM I-1225)”, “cfu/g) was” for “cfu/g) were”
as §2

[6] = system: concentrated preparation of Lactobacillus johnsonii (CNCM I-1225); experiment: Treatment of NESCAFE with concentrated preparation of L. johnsonii, HPLC
Method: 400 mg of NESCAFE SPECIAL FILTRE® (a dried extract of roasted coffee beans) were dissolved in 1 ml of boiling water and the solution was cooled to 37° C. at room temperature. To 250 μl of this coffee solution, different amounts of concentrated preparation of Lactobacillus johnsonii (50 μl, 100 μl, 350 μl, 750 μl) were added and the volume was adjusted to 1 ml with water. The mixtures were than incubated at 37° C. for 2 h and 4 h. After centrifugation (3000 g, 5 min) and filtration the samples were analysed by HPLC.
as §2

[7] = system: Lactobacillus johnsonii (CNCM I-1225); experiment: Treatment of coffee extracts with bacteria cells (L. johnsonii), HPLC
Method: as §2
(§4) Tested strains were harvested (centrifugation at 5000 g for 10 min) after having well reached stationary phase, corresponding to 16 hours of incubation in culture medium at 37° C. in anaerobic atmosphere without agitation. For a first activation of the strains, frozen stock cultures were inoculated in fresh media and grown overnight. This pre-culture was used to inoculate the culture.
(§5) After culture of bacteria and centrifugation, the pellets were resuspended in phosphate buffer (pH 7.0) at a concentration of 0.61 g/ml. To 200 μl of this cells preparation, 800 μl of a coffee solution (3%) was added and the mixture was incubated at 37° C. for 4 h, 16 h and 24 h.

[8] = system: Bifidobacterium lactis BB12 (CNCM I-3446); experiment: Treatment of coffee extracts with bacteria cells (B. lactis), HPLC
Method: as §2, §4, §5

Chlorogenate esterase = experiment: Incubation of coffee extracts with chlorogenate esterase, HPLC; type: biochemical, Aspergillus japonicus
Method: as §2
Chlorogenate esterase (24 U/g), derived from Aspergillus japonicus (Kikkoman, Japan). Tannase from Aspergillus oryzae (Kikkoman, Japan) Preparation of Bacteria Cells
A solution of chlorogenate esterase (25 mg) in 200 μl phosphate buffer (pH 7.0) was added to 800 μl of a coffee solution (3%). The mixture was then incubated at 37° C. for 4 h, 16 h and 24 h. After reaction time, the enzymatic activity was stopped by heat treatment (3 min, 90° C.) and the mixture was filtered before analysis.

**Q.** For `O=C(/C=C/c1ccc(O)c(O)c1)O[C@@H]1C[C@@](O)(C(=O)O)C[C@@H](O)[C@@H]1O` [5-CQA, 5-caffeoyl quinic acid], which “% hydrolysis of 5-CQA (% hydrolysed of total 5-CQA present in the samples)” value [1] is on record?
**A.** Its value is 48%.

**Q.** Which “Concentration in % relative to untreated reference at t = 0” value ([2]; 6 h, cell preparation 100 uL) does the source give for feruloyl quinic acids [FQA] here?
**A.** The value was 42%.

**Q.** And the “Concentration in % relative to untreated reference at t = 0” value ([2]; 6 h, cell preparation 350 uL)?
**A.** Its value is 17%.

**Q.** And the “Concentration in % relative to untreated reference at t = 0” value ([2]; 6 h, cell preparation 750 uL)?
**A.** The value was 8%.

**Q.** What about the “Concentration in % relative to untreated reference at t = 0” value ([2]; 24 h, cell preparation 100 uL) of the same compound?
**A.** The value was 17%.

**Q.** And the “Concentration in % relative to untreated reference at t = 0” value ([2]; 24 h, cell preparation 350 uL)?
**A.** Its value is 4%.

**Q.** What about the “Concentration in % relative to untreated reference at t = 0” value ([2]; 24 h, cell preparation 750 uL) of the same compound?
**A.** Its value is 0%.

**Q.** And the “Concentration in % relative to untreated reference at t = 0” value ([3]; 2 h, cell preparation 100.0 uL)?
**A.** The value was 36%.

**Q.** What about the “Concentration in % relative to untreated reference at t = 0” value ([3]; 2 h, cell preparation 350.0 uL) of the same compound?
**A.** The value was 15%.

**Q.** What about the “Concentration in % relative to untreated reference at t = 0” value ([3]; 6 h, cell preparation 100.0 uL) of the same compound?
**A.** Its value is 18%.

**Q.** And the “Concentration in % relative to untreated reference at t = 0” value ([3]; 6 h, cell preparation 350.0 uL)?
**A.** The value was 11%.

**Q.** And the “% relative to untreated control at t = 0” value ([4]; 2 h)?
**A.** Its value is 82%.

**Q.** And the “% relative to untreated control at t = 0” value ([4]; 6 h)?
**A.** The value was 60%.

**Q.** And the “% relative to untreated control at t = 0” value ([4]; 24 h)?
**A.** The value was 34%.

**Q.** What about the “% relative to untreated control at t = 0” value ([5]; 4 h) of the same compound?
**A.** Its value is 79%.

**Q.** What about the “% relative to untreated control at t = 0” value ([5]; 6 h) of the same compound?
**A.** Its value is 71%.

**Q.** And the “% relative to untreated control at t = 0” value ([5]; 16 h)?
**A.** Its value is 48%.

**Q.** What about the “% relative to untreated control at t = 0” value ([5]; 24 h) of the same compound?
**A.** The value was 52%.

**Q.** What about the “% relative to untreated control at t = 0” value ([6]; cell amount 50 μL/1 mL, 2 h) of the same compound?
**A.** Its value is 90%.

**Q.** What about the “% relative to untreated control at t = 0” value ([6]; cell amount 50 μL/1 mL, 4 h) of the same compound?
**A.** The value was 89%.

**Q.** What about the “% relative to untreated control at t = 0” value ([6]; cell amount 100 μL/1 mL, 2 h) of the same compound?
**A.** The value was 82%.

**Q.** And the “% relative to untreated control at t = 0” value ([6]; cell amount 100 μL/1 mL, 4 h)?
**A.** Its value is 74%.

**Q.** And the “% relative to untreated control at t = 0” value ([6]; cell amount 350 μL/1 mL, 2 h)?
**A.** The value was 61%.

**Q.** And the “% relative to untreated control at t = 0” value ([6]; cell amount 350 μL/1 mL, 4 h)?
**A.** The value was 53%.

**Q.** And the “% relative to untreated control at t = 0” value ([6]; cell amount 750 μL/1 mL, 2 h)?
**A.** Its value is 41%.

**Q.** And the “% relative to untreated control at t = 0” value ([6]; cell amount 750 μL/1 mL, 4 h)?
**A.** Its value is 37%.

**Q.** What about the “% relative to untreated control at t = 0” value ([7]; NESCAFE PROTECT + Lactobacillus johnsonii, 4 h) of the same compound?
**A.** Its value is 42%.

**Q.** What about the “% relative to untreated control at t = 0” value ([7]; NESCAFE PROTECT + Lactobacillus johnsonii, 16 h) of the same compound?
**A.** Its value is 21%.

**Q.** What about the “% relative to untreated control at t = 0” value ([7]; NESCAFE PROTECT + Lactobacillus johnsonii, 24 h) of the same compound?
**A.** Its value is 20%.

**Q.** What about the “% relative to untreated control at t = 0” value ([7]; green coffee extract + Lactobacillus johnsonii, 4 h) of the same compound?
**A.** Its value is 49%.

**Q.** And the “% relative to untreated control at t = 0” value ([7]; green coffee extract + Lactobacillus johnsonii, 16 h)?
**A.** The value was 15%.

**Q.** What about the “% relative to untreated control at t = 0” value ([7]; green coffee extract + Lactobacillus johnsonii, 24 h) of the same compound?
**A.** The value was 15%.

**Q.** And the “% relative to untreated control at t = 0” value ([8]; NESCAFE PROTECT + Bifidobacterium lactis, 4 h)?
**A.** The value was 54%.

**Q.** What about the “% relative to untreated control at t = 0” value ([8]; NESCAFE PROTECT + Bifidobacterium lactis, 16 h) of the same compound?
**A.** Its value is 23%.

**Q.** And the “% relative to untreated control at t = 0” value ([8]; NESCAFE PROTECT + Bifidobacterium lactis, 24 h)?
**A.** The value was 20%.

**Q.** And the “% relative to untreated control at t = 0” value ([8]; green coffee extract + Bifidobacterium lactis, 4 h)?
**A.** The value was 33%.

**Q.** And the “% relative to untreated control at t = 0” value ([8]; green coffee extract + Bifidobacterium lactis, 16 h)?
**A.** Its value is 12%.

**Q.** And the “% relative to untreated control at t = 0” value ([8]; green coffee extract + Bifidobacterium lactis, 24 h)?
**A.** Its value is 6%.

**Q.** And the “% relative to untreated control at t = 0” value (Chlorogenate esterase; NESCAFE PROTECT + Chlorogenate esterase, 4 h)?
**A.** The value was 54%.

**Q.** And the “% relative to untreated control at t = 0” value (Chlorogenate esterase; NESCAFE PROTECT + Chlorogenate esterase, 16 h)?
**A.** The value was 15%.

**Q.** And the “% relative to untreated control at t = 0” value (Chlorogenate esterase; NESCAFE PROTECT + Chlorogenate esterase, 24 h)?
**A.** Its value is 14%.

**Q.** What about the “% relative to untreated control at t = 0” value (Chlorogenate esterase; green coffee extract + Chlorogenate esterase, 4 h) of the same compound?
**A.** Its value is 73%.

**Q.** And the “% relative to untreated control at t = 0” value (Chlorogenate esterase; green coffee extract + Chlorogenate esterase, 16 h)?
**A.** Its value is 24%.

**Q.** What about the “% relative to untreated control at t = 0” value (Chlorogenate esterase; green coffee extract + Chlorogenate esterase, 24 h) of the same compound?
**A.** The value was 23%.
